Key:
Assay in all cases: relative viability (nuclei count vs DMSO), 5 days (fraction); higher = more cells survive
A-427 = system: A-427
Method in brief: (§1)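 Cells from lung cancer lines were seeded into 1536-well plates and, one day later, dosed by pin tool. Treatments were either a single drug or a fixed dose of an anchor drug with five library-drug doses (not always all listed) in √10 steps. After 5 days, nuclei were stained in a one-step fixation (final 0.05% Triton X-100, 1% formaldehyde, 1 ug/ml Hoechst) and counted on 4× images, and relative viability is the treated-to-vehicle nuclei ratio, as the median of duplicate plates.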

HCC-15 = system: HCC-15
Method in brief: as §1

HCC-78 = system: HCC-78
Method in brief: as §1

HOP-62 = system: HOP-62
Method in brief: as §1

LC-2-ad = system: LC-2-ad
Method in brief: as §1

LOU-NH91 = system: LOU-NH91
Method in brief: as §1

LXF-289 = system: LXF-289
Method in brief: as §1

NCI-H1734 = system: NCI-H1734
Method in brief: as §1

NCI-H1755 = system: NCI-H1755
Method in brief: as §1

NCI-H1792 = system: NCI-H1792
Method in brief: as §1

NCI-H1915 = system: NCI-H1915
Method in brief: as §1

NCI-H1975 = system: NCI-H1975
Method in brief: as §1

NCI-H2126 = system: NCI-H2126
Method in brief: as §1

NCI-H2342 = system: NCI-H2342
Method in brief: as §1

NCI-H2347 = system: NCI-H2347
Method in brief: as §1

NCI-H358 = system: NCI-H358
Method in brief: as §1

NCI-H460 = system: NCI-H460
Method in brief: as §1

NCI-H647 = system: NCI-H647
Method in brief: as §1

PC-3 [JPC-3] = system: PC-3 [JPC-3]
Method in brief: as §1

RERF-LC-KJ = system: RERF-LC-KJ
Method in brief: as §1

Work on `CC1(C)CCC(c2ccc(Cl)cc2)=C(CN2CCN(c3ccc(C(=O)NS(=O)(=O)c4ccc(N[C@H](CCN5CCOCC5)CSc5ccccc5)c(S(=O)(=O)C(F)(F)F)c4)cc3)CC2)C1` [Navitoclax] + NC(=O)Nc1cc(-c2cccc(F)c2)sc1C(=O)N[C@H]1CCCNC1 [AZD7762] (partner 0.2 µM) yielded a relative viability (A-427; first compound 0.005 µM) of 0.79, a relative viability (A-427; first compound 0.01581 µM) of 0.822 and a relative viability (A-427; first compound 0.05 µM) of 0.639. It also gave a relative viability (A-427; first compound 0.1581 µM) of 0.722, a relative viability (A-427; first compound 0.5 µM) of 0.718 and a relative viability (HCC-15; first compound 0.005 µM) of 0.868. The relative viability (HCC-15; first compound 0.01581 µM) was 1.2, the relative viability (HCC-15; first compound 0.05 µM) was 0.838 and the relative viability (HCC-15; first compound 0.1581 µM) was 1.03. It also gave a relative viability (HCC-15; first compound 0.5 µM) of 1.05, a relative viability (HCC-78; first compound 0.005 µM) of 0.985 and a relative viability (HCC-78; first compound 0.01581 µM) of 0.612. It also gave a relative viability (HCC-78; first compound 0.05 µM) of 0.508, a relative viability (HCC-78; first compound 0.1581 µM) of 0.607 and a relative viability (HCC-78; first compound 0.5 µM) of 0.667. It also gave a relative viability (HOP-62; first compound 0.005 µM) of 0.721, a relative viability (HOP-62; first compound 0.01581 µM) of 0.694 and a relative viability (HOP-62; first compound 0.05 µM) of 0.514. For the same compound, the relative viability (HOP-62; first compound 0.1581 µM) was 0.512, the relative viability (HOP-62; first compound 0.5 µM) was 0.384 and the relative viability (LC-2-ad; first compound 0.005 µM) was 0.835. For the same compound, the relative viability (LC-2-ad; first compound 0.01581 µM) was 0.957, the relative viability (LC-2-ad; first compound 0.05 µM) was 0.796 and the relative viability (LC-2-ad; first compound 0.1581 µM) was 0.815. It also gave a relative viability (LC-2-ad; first compound 0.5 µM) of 0.822, a relative viability (LOU-NH91; first compound 0.005 µM) of 0.746 and a relative viability (LOU-NH91; first compound 0.01581 µM) of 0.792. It also gave a relative viability (LOU-NH91; first compound 0.05 µM) of 0.656, a relative viability (LOU-NH91; first compound 0.1581 µM) of 0.535 and a relative viability (LOU-NH91; first compound 0.5 µM) of 0.306. For the same compound, the relative viability (LXF-289; first compound 0.005 µM) was 1.11, the relative viability (LXF-289; first compound 0.01581 µM) was 1.18 and the relative viability (LXF-289; first compound 0.05 µM) was 0.924. It also gave a relative viability (LXF-289; first compound 0.1581 µM) of 1.06, a relative viability (LXF-289; first compound 0.5 µM) of 1.04 and a relative viability (NCI-H1734; first compound 0.005 µM) of 0.533. It also gave a relative viability (NCI-H1734; first compound 0.01581 µM) of 0.555, a relative viability (NCI-H1734; first compound 0.1581 µM) of 0.543 and a relative viability (NCI-H1734; first compound 0.5 µM) of 0.506. The relative viability (NCI-H1755; first compound 0.005 µM) was 0.426, the relative viability (NCI-H1755; first compound 0.01581 µM) was 0.462 and the relative viability (NCI-H1755; first compound 0.05 µM) was 0.322. It also gave a relative viability (NCI-H1755; first compound 0.1581 µM) of 0.439, a relative viability (NCI-H1755; first compound 0.5 µM) of 0.474 and a relative viability (NCI-H1792; first compound 0.005 µM) of 0.593. It also gave a relative viability (NCI-H1792; first compound 0.01581 µM) of 0.77, a relative viability (NCI-H1792; first compound 0.1581 µM) of 0.559 and a relative viability (NCI-H1792; first compound 0.5 µM) of 0.502. It also gave a relative viability (NCI-H1915; first compound 0.005 µM) of 0.726, a relative viability (NCI-H1915; first compound 0.01581 µM) of 0.697 and a relative viability (NCI-H1915; first compound 0.05 µM) of 0.657. It also gave a relative viability (NCI-H1915; first compound 0.1581 µM) of 0.639, a relative viability (NCI-H1915; first compound 0.5 µM) of 0.597 and a relative viability (NCI-H1975; first compound 0.005 µM) of 0.855. The relative viability (NCI-H1975; first compound 0.01581 µM) was 0.799, the relative viability (NCI-H1975; first compound 0.05 µM) was 0.713 and the relative viability (NCI-H1975; first compound 0.1581 µM) was 0.752. It also gave a relative viability (NCI-H1975; first compound 0.5 µM) of 0.646, a relative viability (NCI-H2126; first compound 0.005 µM) of 1.06 and a relative viability (NCI-H2126; first compound 0.01581 µM) of 0.931. For the same compound, the relative viability (NCI-H2126; first compound 0.05 µM) was 1.05, the relative viability (NCI-H2126; first compound 0.1581 µM) was 0.915 and the relative viability (NCI-H2126; first compound 0.5 µM) was 0.947. The relative viability (NCI-H2342; first compound 0.005 µM) was 0.532, the relative viability (NCI-H2342; first compound 0.01581 µM) was 0.464 and the relative viability (NCI-H2342; first compound 0.05 µM) was 0.424. For the same compound, the relative viability (NCI-H2342; first compound 0.1581 µM) was 0.603, the relative viability (NCI-H2342; first compound 0.5 µM) was 0.571 and the relative viability (NCI-H2347; first compound 0.005 µM) was 0.809. The relative viability (NCI-H2347; first compound 0.01581 µM) was 0.594, the relative viability (NCI-H2347; first compound 0.05 µM) was 0.579 and the relative viability (NCI-H2347; first compound 0.1581 µM) was 0.685. It also gave a relative viability (NCI-H2347; first compound 0.5 µM) of 0.579, a relative viability (NCI-H358; first compound 0.005 µM) of 0.566 and a relative viability (NCI-H358; first compound 0.01581 µM) of 0.712. The relative viability (NCI-H358; first compound 0.05 µM) was 0.545, the relative viability (NCI-H358; first compound 0.1581 µM) was 0.485 and the relative viability (NCI-H358; first compound 0.5 µM) was 0.592. It also gave a relative viability (NCI-H460; first compound 0.005 µM) of 0.575, a relative viability (NCI-H460; first compound 0.01581 µM) of 0.622 and a relative viability (NCI-H460; first compound 0.05 µM) of 0.322. For the same compound, the relative viability (NCI-H460; first compound 0.1581 µM) was 0.573, the relative viability (NCI-H460; first compound 0.5 µM) was 0.532 and the relative viability (NCI-H647; first compound 0.005 µM) was 0.413. For the same compound, the relative viability (NCI-H647; first compound 0.01581 µM) was 0.446, the relative viability (NCI-H647; first compound 0.05 µM) was 0.492 and the relative viability (NCI-H647; first compound 0.1581 µM) was 0.343. The relative viability (NCI-H647; first compound 0.5 µM) was 0.438, the relative viability (PC-3 [JPC-3]; first compound 0.005 µM) was 0.726 and the relative viability (PC-3 [JPC-3]; first compound 0.01581 µM) was 0.972. For the same compound, the relative viability (PC-3 [JPC-3]; first compound 0.05 µM) was 0.483, the relative viability (PC-3 [JPC-3]; first compound 0.1581 µM) was 0.702 and the relative viability (PC-3 [JPC-3]; first compound 0.5 µM) was 0.759. For the same compound, the relative viability (RERF-LC-KJ; first compound 0.005 µM) was 1, the relative viability (RERF-LC-KJ; first compound 0.01581 µM) was 1.08 and the relative viability (RERF-LC-KJ; first compound 0.05 µM) was 0.824. The relative viability (RERF-LC-KJ; first compound 0.1581 µM) was 1.12 and the relative viability (RERF-LC-KJ; first compound 0.5 µM) was 0.921.

Source: the supplement of paper PMC10307832
